This is an account of results in article PMC9457941, “Synthesis and Kinase Inhibitory Potencies of Pyrazolo[3,4-g]isoquinolines” (Molecules, 2022).

The target of data set [1] is T1, Haspin-kd (human, kinase domain, amino acids 470–798) (Homo sapiens, UniProt Q8TF76).
T1 construct: Haspin-kd (human, kinase domain, amino acids 470–798, recombinant, expressed in bacteria); host or cells: bacteria
T1 sequence (Q8TF76 470-798): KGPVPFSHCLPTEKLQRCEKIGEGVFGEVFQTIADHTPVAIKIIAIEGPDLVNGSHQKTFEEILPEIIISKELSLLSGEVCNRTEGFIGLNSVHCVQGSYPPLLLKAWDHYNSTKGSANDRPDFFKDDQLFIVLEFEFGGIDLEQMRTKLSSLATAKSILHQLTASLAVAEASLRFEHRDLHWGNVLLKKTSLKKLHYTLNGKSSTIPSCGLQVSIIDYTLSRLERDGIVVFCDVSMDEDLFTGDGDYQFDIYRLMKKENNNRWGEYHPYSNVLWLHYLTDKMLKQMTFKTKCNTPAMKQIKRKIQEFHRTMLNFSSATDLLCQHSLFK
Put plainly: ADP-Glo kinase inhibition assay, Haspin. The data set is classed as biochemical. The settings on record: for IC50: 10 μM ATP, duplicate; for remaining activity at 1 µM: read-out: Haspin % residual activity at 1 μM; for remaining activity at 10 µM: read-out: Haspin % residual activity at 10 μM. The method, then: (§1) Kinase enzymatic activities were assayed in 384 well plates using the ADP-GloTM assay kit (Promega, Madison, WI, USA) according to the manufacturer’s guidance. Briefly, the reactions were carried out in a final volume of 6 μL for 30 min at 30 °C in an appropriate kinase buffer (10 mM MgCl2, 1 mM EGTA, 1 mM DTT, 25 mM Tris-HCl pH 7.5, 50 μg/mL heparin), with either protein or peptide as substrate in the presence of 10 μM ATP (40 mM Tris pH 7.5, 20 mM MgCl2 and 0.1 mg/mL of BSA). Afterward, 6 μL of ADP-GloTM Kinase Reagent was added to stop the kinase reaction. After an incubation time of 50 min at room temperature (RT), 12 μL of Kinase Detection Reagent was added for 1 h at RT. The transmitted signal was measured using the Envision (Perkin Elmer, Waltham, MA, USA) microplate luminometer and expressed in relative light unit (RLU). In order to determine the half maximal inhibitory concentration (IC50), the assays were performed in duplicate in the absence or presence of increasing doses of the tested compounds. GraphPad Prism6 software (GraphPad Software, San Diego, CA, USA) was used to fit dose–response curves and to determine the IC50 values. Kinase activities are expressed in the percentage of maximal activity, i.e., measured in the absence of an inhibitor. Peptide substrates were obtained from Proteogenix (Schiltigheim, France).

The target in a further data set is T2, MmCLK1 (Mus musculus, UniProt P22518).
T2 construct: host or cells: bacteria
T2 sequence (P22518 whole entry): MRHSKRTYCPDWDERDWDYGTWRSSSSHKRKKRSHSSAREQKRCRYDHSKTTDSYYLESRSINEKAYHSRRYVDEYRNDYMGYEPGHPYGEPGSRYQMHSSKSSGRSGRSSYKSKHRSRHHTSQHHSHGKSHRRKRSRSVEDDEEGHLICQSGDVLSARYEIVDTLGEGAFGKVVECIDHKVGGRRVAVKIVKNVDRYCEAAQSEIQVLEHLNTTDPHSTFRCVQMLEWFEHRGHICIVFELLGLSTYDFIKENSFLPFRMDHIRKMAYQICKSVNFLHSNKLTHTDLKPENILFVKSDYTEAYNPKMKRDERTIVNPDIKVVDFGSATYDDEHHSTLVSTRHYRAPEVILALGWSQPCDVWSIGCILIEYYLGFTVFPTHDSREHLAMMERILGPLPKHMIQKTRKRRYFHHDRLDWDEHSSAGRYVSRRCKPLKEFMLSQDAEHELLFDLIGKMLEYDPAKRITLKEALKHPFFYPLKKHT
Put plainly: ADP-Glo kinase inhibition assay, CLK1. The data set is classed as biochemical. To be noted: for IC50: 10 μM ATP, duplicate, read-out: CLK1 IC50; for remaining activity at 1 µM: read-out: CLK1 % residual activity at 1 μM; for remaining activity at 10 µM: read-out: CLK1 % residual activity at 10 μM. Here is the method:
as §1
(§2) The following protein kinases were analyzed in this study: CDK5/p25 (human, recombinant, expressed in bacteria) was assayed with 0.8 μg/μL of histone H1 as substrate; CDK9/CyclinT (human, recombinant, expressed by baculovirus in Sf9 insect cells) were assayed with 0.27 μg/μL of the following peptide: […], as substrate; CK1ε (human, recombinant, expressed by baculovirus in Sf9 insect cells) was assayed with 0.022 μg/μL of the following peptide: […]pAYSITA (“Sp” stands for phosphorylated serine) as CK1-specific substrate; GSK3β (human, recombinant, expressed by baculovirus in Sf9 insect cells) were assayed with 0.010 μg/μL of GS-1 peptide, a GSK-3-selective substrate ([…]pEDEEE); Haspin-kd (human, kinase domain, amino acids 470–798, recombinant, expressed in bacteria) was assayed with 0.007 μg/μL of histone H3 (1–21) peptide ([…]) as substrate; Pim-1 (human proto-oncogene, recombinant, expressed in bacteria) was assayed with 0.8 μg/μL of histone H1 as substrate; MmCLK1 (from Mus musculus, recombinant, expressed in bacteria) was assayed with 0.027 μg/μL of the following peptide: […] as substrate; RnDYRK1A-kd (Rattus norvegicus, amino acids 1–499 including the kinase domain, recombinant, expressed in bacteria, DNA vector kindly provided by Dr. W. Becker, Aachen, Germany) was assayed with 0.033 μg/μL of the following peptide: […] as substrate.
In general terms: ADP-Glo turns the ADP formed in a reaction into a luminescent signal.

For another data set, the target named is T3, RnDYRK1A-kd (Rattus norvegicus, UniProt Q63470).
T3 construct: RnDYRK1A-kd (Rattus norvegicus, amino acids 1–499 including the kinase domain, recombinant, expressed in bacteria); made in house; host or cells: bacteria
Description: ADP-Glo kinase inhibition assay, DYRK1A. The class given is biochemical. To be noted: for remaining activity at 1 µM: read-out: DYRK1A % residual activity at 1 μM; for remaining activity at 10 µM: read-out: DYRK1A % residual activity at 10 μM. Here is the method:
as §1, §2

The next data set deals with T4, CDK9/CyclinT (Homo sapiens, UniProt P50750).
T4 construct: host or cells: Sf9 insect cells (baculovirus)
T4 sequence (O60563 whole entry): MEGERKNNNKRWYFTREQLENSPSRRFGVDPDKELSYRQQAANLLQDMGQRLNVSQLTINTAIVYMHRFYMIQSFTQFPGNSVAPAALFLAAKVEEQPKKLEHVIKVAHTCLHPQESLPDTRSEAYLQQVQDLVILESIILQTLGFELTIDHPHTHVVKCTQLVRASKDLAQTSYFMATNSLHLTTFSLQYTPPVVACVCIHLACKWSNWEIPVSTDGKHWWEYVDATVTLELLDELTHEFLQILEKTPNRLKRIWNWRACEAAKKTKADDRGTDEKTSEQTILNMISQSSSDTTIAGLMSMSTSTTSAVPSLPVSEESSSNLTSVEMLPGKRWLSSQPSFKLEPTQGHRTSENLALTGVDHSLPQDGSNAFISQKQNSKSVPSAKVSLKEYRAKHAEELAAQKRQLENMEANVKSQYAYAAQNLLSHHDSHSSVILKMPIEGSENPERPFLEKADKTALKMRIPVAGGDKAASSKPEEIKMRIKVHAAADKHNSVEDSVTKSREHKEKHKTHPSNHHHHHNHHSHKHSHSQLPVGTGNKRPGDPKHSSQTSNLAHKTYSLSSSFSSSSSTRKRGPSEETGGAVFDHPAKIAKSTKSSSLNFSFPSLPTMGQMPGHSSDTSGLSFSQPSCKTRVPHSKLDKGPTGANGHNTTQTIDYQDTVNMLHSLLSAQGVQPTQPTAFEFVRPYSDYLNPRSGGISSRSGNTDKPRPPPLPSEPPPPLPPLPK
T4 sequence (P50750 whole entry): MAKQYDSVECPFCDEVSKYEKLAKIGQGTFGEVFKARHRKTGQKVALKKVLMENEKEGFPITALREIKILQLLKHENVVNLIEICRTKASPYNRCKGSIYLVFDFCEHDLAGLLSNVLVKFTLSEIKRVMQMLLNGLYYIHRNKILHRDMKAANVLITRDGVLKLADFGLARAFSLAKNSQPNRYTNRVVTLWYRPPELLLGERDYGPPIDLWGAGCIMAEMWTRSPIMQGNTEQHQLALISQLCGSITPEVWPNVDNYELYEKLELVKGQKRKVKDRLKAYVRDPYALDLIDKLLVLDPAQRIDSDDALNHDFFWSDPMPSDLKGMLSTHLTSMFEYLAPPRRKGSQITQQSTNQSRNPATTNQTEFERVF
Description: ADP-Glo kinase inhibition assay, CDK9/CyclinT. The data set is classed as biochemical. To be noted: for IC50: 10 μM ATP, duplicate; for remaining activity at 1 µM: read-out: CDK9 % residual activity at 1 μM; for remaining activity at 10 µM: read-out: CDK9 % residual activity at 10 μM. The method, then: as §1, §2

In a further data set the target is T5, GSK3β (Homo sapiens, UniProt P49841).
T5 construct: host or cells: Sf9 insect cells (baculovirus)
T5 sequence (P49841 whole entry): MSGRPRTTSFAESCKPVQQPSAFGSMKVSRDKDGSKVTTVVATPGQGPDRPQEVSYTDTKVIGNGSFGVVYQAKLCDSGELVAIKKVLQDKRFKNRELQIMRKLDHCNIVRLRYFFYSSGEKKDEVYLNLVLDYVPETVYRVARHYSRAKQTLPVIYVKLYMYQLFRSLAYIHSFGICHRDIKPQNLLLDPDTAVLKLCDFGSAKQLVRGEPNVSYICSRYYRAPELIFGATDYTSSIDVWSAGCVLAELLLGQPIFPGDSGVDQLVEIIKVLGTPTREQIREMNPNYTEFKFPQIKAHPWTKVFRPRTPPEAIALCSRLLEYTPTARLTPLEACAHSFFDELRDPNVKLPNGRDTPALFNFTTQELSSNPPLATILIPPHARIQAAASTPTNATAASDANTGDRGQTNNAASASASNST
Description: ADP-Glo kinase inhibition assay, GSK3β. To be noted: for IC50: 10 μM ATP, duplicate, read-out: GSK3 IC50; for remaining activity at 1 µM: read-out: GSK3 % residual activity at 1 μM; for remaining activity at 10 µM: read-out: GSK3 % residual activity at 10 μM. The class given is biochemical. Here is the method:
as §1, §2

The target in a further data set is T6, CK1ε (Homo sapiens, UniProt P49674).
T6 construct: host or cells: Sf9 insect cells (baculovirus)
T6 sequence (P49674 whole entry): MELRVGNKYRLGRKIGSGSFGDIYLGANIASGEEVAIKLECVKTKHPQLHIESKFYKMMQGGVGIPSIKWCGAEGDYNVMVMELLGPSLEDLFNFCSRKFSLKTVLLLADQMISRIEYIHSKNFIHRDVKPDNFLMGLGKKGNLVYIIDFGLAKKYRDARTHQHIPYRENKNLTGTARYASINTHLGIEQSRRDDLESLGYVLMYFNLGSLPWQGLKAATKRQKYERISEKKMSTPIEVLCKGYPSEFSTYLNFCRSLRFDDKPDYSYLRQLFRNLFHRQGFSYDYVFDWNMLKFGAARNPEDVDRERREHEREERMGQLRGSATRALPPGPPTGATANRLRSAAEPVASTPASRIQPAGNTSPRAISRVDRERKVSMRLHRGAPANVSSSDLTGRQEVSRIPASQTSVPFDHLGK
Description: ADP-Glo kinase inhibition assay, CK1ε. The data set is classed as biochemical. The settings on record: 10 μM ATP, duplicate; for remaining activity at 1 µM: 1 μM compound, read-out: CK1 % residual activity at 1 μM; for remaining activity at 10 µM: 10 μM compound, read-out: CK1 % residual activity at 10 μM. The method, then: as §1, §2

The target of a further data set is T7, CDK5/p25 (Homo sapiens, UniProt Q00535).
T7 construct: host or cells: bacteria
T7 sequence (Q00535 whole entry): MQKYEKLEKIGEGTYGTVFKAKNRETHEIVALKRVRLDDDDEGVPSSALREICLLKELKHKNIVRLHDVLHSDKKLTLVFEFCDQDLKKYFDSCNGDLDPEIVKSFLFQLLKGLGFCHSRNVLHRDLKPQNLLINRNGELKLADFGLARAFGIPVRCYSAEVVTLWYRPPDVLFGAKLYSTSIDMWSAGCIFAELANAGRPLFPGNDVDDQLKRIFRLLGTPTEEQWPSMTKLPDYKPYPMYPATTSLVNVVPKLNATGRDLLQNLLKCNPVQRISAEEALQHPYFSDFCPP
T7 sequence (Q15078 99-307, further chain): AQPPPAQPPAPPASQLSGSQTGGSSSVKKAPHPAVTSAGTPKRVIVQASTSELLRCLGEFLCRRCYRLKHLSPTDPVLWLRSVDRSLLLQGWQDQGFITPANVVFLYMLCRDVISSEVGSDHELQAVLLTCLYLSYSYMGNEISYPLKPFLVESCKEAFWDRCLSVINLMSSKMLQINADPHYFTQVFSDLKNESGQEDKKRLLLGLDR
Description: ADP-Glo kinase inhibition assay, CDK5/p25. The settings on record: for remaining activity at 1 µM: read-out: CDK5 % residual activity at 1 μM; for remaining activity at 10 µM: read-out: CDK5 % residual activity at 10 μM. The data set is classed as biochemical. The method, then:
as §1, §2

In the next data set the target is T8, Pim-1 (Homo sapiens, UniProt P11309).
T8 construct: host or cells: bacteria
T8 sequence (P11309 whole entry): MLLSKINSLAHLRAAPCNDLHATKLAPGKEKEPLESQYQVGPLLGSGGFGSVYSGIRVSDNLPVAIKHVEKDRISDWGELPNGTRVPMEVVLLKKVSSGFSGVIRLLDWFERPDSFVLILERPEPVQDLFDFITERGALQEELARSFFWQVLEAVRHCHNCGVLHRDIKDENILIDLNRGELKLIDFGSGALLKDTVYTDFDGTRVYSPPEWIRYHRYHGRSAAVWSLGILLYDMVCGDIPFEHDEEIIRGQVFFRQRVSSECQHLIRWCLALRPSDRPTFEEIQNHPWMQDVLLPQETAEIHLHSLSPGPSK
Description: ADP-Glo kinase inhibition assay, Pim-1. The class given is biochemical. The settings on record: 10 μM ATP, duplicate; for remaining activity at 1 µM: 1 μM compound, read-out: PIM1 % residual activity at 1 μM; for remaining activity at 10 µM: 10 μM compound, read-out: PIM1 % residual activity at 10 μM. The method, then: as §1, §2

Data set [2] concerns Haspin, CLK1, DYRK1A, CDK9/Cyclin T, GSK-3β, CK1ε, CDK5/p25 and Pim1. Description: Panel of eight protein kinases (ADP-Glo), statements across kinases. The data set is classed as biochemical. The settings on record: 1 μM compound. Here is the method:
It should be noted that due to solubility issues, compound 1a could not be tested; only the corresponding methane sulfonate salt 1a’ was evaluated. The percentage of residual kinase activity was evaluated at 10 μM and 1 μM compound concentrations. […].
as §1, with “GraphPad Prism6 software (GraphPad Software, San Diego, CA, USA) was used to fit dose–response curves and to determine the IC50 values.” left out, “Peptide substrates were obtained from Proteogenix (Schiltigheim, France).” left out

In the next data set the test system is panel of 486 kinases. To be noted: cited from earlier work.

Usually IC50 stands for the concentration that gives 50% inhibition. Broadly, the melting point is the temperature of the solid-liquid transition. The compound `Nc1c2ccncc2cc2cn[nH]c12` [Compound 2a, 1-H-pyrazolo[3,4-g]isoquinolin-9-amine] displayed a melting point of more than 250 °C. In addition, in [1], the IC50 amounted to 127 nM, the remaining activity at 1 µM is 13% and the remaining activity at 10 µM was found to be 8%. In addition, the “Selectivity Index (SI) Haspin vs. CLK1 = CLK1 IC50/Haspin IC50” value in data set [1] (Haspin vs. CLK1) turned out to be 2.3. At MmCLK1, the IC50 was 296 nM, the remaining activity at 1 µM is 20% and the remaining activity at 10 µM was found to be 8%. Moreover, the IC50 at RnDYRK1A-kd (10 μM ATP, duplicate, read-out: DYRK1A IC50) stood at 600 nM. For the same compound, at RnDYRK1A-kd, the remaining activity at 1 µM worked out at 32% and the remaining activity at 10 µM is 12%. In addition, at CDK9/CyclinT, the IC50 was 430 nM, the remaining activity at 1 µM is 22% and the remaining activity at 10 µM was 10%. Moreover, on GSK3β, the IC50 is 411 nM, the remaining activity at 1 µM came out at 48% and the remaining activity at 10 µM came out at 18%. Moreover, at CK1ε, the remaining activity at 1 µM was determined as 71% and the remaining activity at 10 µM was 28%. Besides, inhibition against CDK5/p25 (10 μM ATP, duplicate) was half-maximal at 927 nM (IC50). At CDK5/p25, the remaining activity at 1 µM came out at 45% and the remaining activity at 10 µM amounted to 17%. Also, at Pim-1, the remaining activity at 1 µM is 100% and the remaining activity at 10 µM turned out to be 90%. The “kinases inhibited to more than 50% at 1 μM” value in data set [2] is given as “six out of eight”.
The compound `CCn1ncc2c(C3CC3)c3cnccc3c([N+](=O)[O-])c21` [Compound 3d, 4-Cyclopropyl-1-ethyl-9-nitro-1H-pyrazolo[3,4-g]isoquinoline] returned a melting point of 97 °C. In data set [1], the IC50 came to 312 nM, the remaining activity at 1 µM turned out to be 21% and the remaining activity at 10 µM is 12%. On MmCLK1, the IC50 was determined as 229 nM, the remaining activity at 1 µM came out at 24% and the remaining activity at 10 µM was found to be 5%. Further, at RnDYRK1A-kd, the remaining activity at 1 µM was found to be 67% and the remaining activity at 10 µM was 29%. Also, on CDK9/CyclinT, the IC50 was determined as 266 nM, the remaining activity at 1 µM worked out at 33% and the remaining activity at 10 µM was 11%. Moreover, on GSK3β, the IC50 was 226 nM, the remaining activity at 1 µM is 17% and the remaining activity at 10 µM turned out to be 5%. Further, on CK1ε, the remaining activity at 1 µM came to 61% and the remaining activity at 10 µM came out at 15%. Also, on CDK5/p25, the remaining activity at 1 µM is 67% and the remaining activity at 10 µM was 24%. For the same compound, at Pim-1, the remaining activity at 1 µM was determined as 99% and the remaining activity at 10 µM stood at 82%.
As to `COc1ncc2cc3cnccc3c([N+](=O)[O-])c2n1` [I], the “kinases inhibited when tested on a large panel of 486 kinases” value with panel of 486 kinases is recorded as 12%.
